# Laboratory results from US8329863B2, “Gonadotropin releasing hormone antagonists” (Oakwood Laboratories, LLC, priority 2004, dated 2012).
# Where two headings read alike, the source gives them in different places. Square brackets hold non-standard residues; d marks the D form. Peptide text beside a SMILES is read from it. * marks the point of attachment. dPhe(4-Cl) = N[C@H](Cc1ccc(Cl)cc1)C(=O)O; Nicotinoyl(6-NH2) = Nc1ccc(C(=O)*)cn1; d1Nal = N[C@H](Cc1cccc2ccccc12)C(=O)O; Lys(iPr) = CC(C)NCCCC[C@H](N)C(=O)O; d3Pal = N[C@H](Cc1cccnc1)C(=O)O; Picolinoyl = O=C(c1ccccn1)*; dOrn = NCCC[C@@H](N)C(=O)O
# Key:
# [1] = Water solubility at room temperature; format: physicochemical
# Experimental: Solubility of the novel GnRH antagonist was compared with that of orntide acetate at room temperature. In this experiment, 50 mg of the novel GnRH antagonist was weighed into a small glass container and 2 mL of purified water was added to it. […] An additional 3 mL of water was added, the solution mixed, and the pH was determined: 5.4. The same procedure was used to test the solubility of orntide acetate (known in the art as ornirelix).
# Separately, another 50 mg aliquot was weighed out and 1 ml of water was added. This also dissolved. This is 50 mg/mL in concentration, which is 10 times what is possible to dissolve with orntide acetate.
# testosterone = experiment: Testosterone suppression in vivo in the standard experimental rat model; parameters: species or system male Sprague Dawley rats; conditions: subcutaneous
# Experimental: Briefly, male Sprague Dawley rats weighing approximately 300 g were purchased from Harlan (Indianapolis, Ind.) and used immediately after the quarantine period required by a University of Kentucky Animal Research Facility approved protocol.
# The evaluation was conducted in two groups of rats. Group 1 included 6 rats to be administered with the novel GnRH antagonist. The other group was a control group consisting of 2 rats. The novel GnRH antagonist was administered subcutaneously (scapulae). Blood samples (1 mL) for testosterone level determinations were collected from the tail vein at 0, 1, 3, 6, 12, 24, and 48 hours. Serum was extracted by centrifugation at 2000 rpm for 15 min and stored at −20 C until determination of testosterone/LH levels. Rat plasma testosterone was determined using Active™ Testosterone RIA DSL-4000 kits purchased from Diagnostic Systems, Inc. Webster, Tex. To effect a sufficient washout period the doses were administered at weekly intervals.
# A total of six rats were used for each dose tested. In the first week, each rat received a single dose of 15 μg. In the second week, the dose increased to 30 μg. Next, in the third week, each rat received a single dose of 60 μg. Table 2 is the control rat group with a total of 2 rats that received only vehicle.
Compound,"solubility ([1]; aqueous media, even at a pH lower than 5, read-out: solubility in aqueous media) [µg/mL]",gelling in aqueous media ([1]; at concentrations less than 5 mg/mL),"solubility ([1]; water, pH 5, at a pH of 5, read-out: water solubility) [µg/mL]","testosterone level reached after the castration period (testosterone; 15 μg/rat, after about 12 hours) [ng/mL]","duration of chemical castration of testosterone (≦0.5 ng/ml) (testosterone; 15 μg/rat, single dose)","serum testosterone level at 6 hours (testosterone; 15 μg/rat, single dose, week 1, mean of 6 rats) [ng/mL]","testosterone level by 24 hours (testosterone; 30 μg/rat, single dose)","duration of testosterone suppression (testosterone; 30 μg/rat, single dose, week 2)","time to dissolve ([1]; 50 mg in 2 mL purified water, relatively gentle mixing, room temperature)",pH of the solution ([1]; 50 mg in 5 mL water (10 mg/mL))
"CC(=O)N[C@H](Cc1cccc2ccccc12)C(=O)N[C@H](Cc1ccc(Cl)cc1)C(=O)N[C@H](Cc1cccnc1)C(=O)N[C@@H](CO)C(=O)N[C@@H](CCCCNC(=O)c1ccccn1)C(=O)N[C@H](CCCNC(=O)c1ccc(N)nc1)C(=O)N[C@@H](CC(C)C)C(=O)N[C@@H](CCCCNC(C)C)C(=O)N1CCC[C@H]1C(=O)N[C@H](C)C(N)=O [orntide acetate, DNal^1, DpCIPhe^2, D3Pal^3 Ser^4, PicLys^5, D(6ANic)Orn^6, Leu^7, IprLys^8, Pro^9, DAla^10-NH2] (Ac-[d1Nal][dPhe(4-Cl)][d3Pal]SK(Picolinoyl)[dOrn](Nicotinoyl(6-NH2))L[Lys(iPr)]P[dA]-NH2; N-terminus and C-terminus assumed)",< 5000,tends to gel even at that low concentration,< 5000,,,,,,,
"AcDNal^1, DpCIPhe^2, D3Pal^3 Ser^4, NicLys^5, D(6ANic)Orn^6, Leu^7, IprLys^8, Pro^9, DAla^10NH2 [novel GnRH antagonist]",,,,1.5,about 12 hours,0.2,greater than 0.5 ng/mL,at least 12 hours,less than 30 seconds,5.4
